Laboratory results published in article PMC6943496, “Antiplasmodial Activity of Nitroaromatic Compounds: Correlation with Their Reduction Potential and Inhibitory Action on Plasmodium falciparum Glutathione Reductase” (Molecules, 2019).

These compounds were tested against T1, P. falciparum glutathione reductase (PfGR) (Plasmodium falciparum, UniProt Q94655) (assay: NADPH oxidation at […] nm, Cleland plot ([…]/kcat vs [I])).
T1 construct: gene GR; 2 x 55 kD homodimer with FAD
T1 sequence (Q94655 2-500): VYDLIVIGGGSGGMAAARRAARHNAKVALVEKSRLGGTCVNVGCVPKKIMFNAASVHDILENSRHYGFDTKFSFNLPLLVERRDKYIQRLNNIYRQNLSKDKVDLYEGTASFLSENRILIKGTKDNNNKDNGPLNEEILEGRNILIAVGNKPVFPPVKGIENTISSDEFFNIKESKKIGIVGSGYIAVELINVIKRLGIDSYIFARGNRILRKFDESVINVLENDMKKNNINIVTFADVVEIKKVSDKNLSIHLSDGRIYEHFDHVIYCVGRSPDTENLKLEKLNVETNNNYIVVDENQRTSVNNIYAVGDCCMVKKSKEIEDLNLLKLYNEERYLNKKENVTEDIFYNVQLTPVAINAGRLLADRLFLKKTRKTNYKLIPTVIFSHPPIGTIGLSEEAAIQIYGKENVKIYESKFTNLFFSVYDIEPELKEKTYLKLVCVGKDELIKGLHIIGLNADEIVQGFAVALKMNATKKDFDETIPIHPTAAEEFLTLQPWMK
Type: biochemical
O=C1CN(/N=C/c2ccc([N+](=O)[O-])o2)C(=O)N1 [compound 10, Nitrofurantoin] gave a Ki of 9 ± 1 µM.
For O=Cc1ccc([N+](=O)[O-])cc1 [compound 7, 4-Nitrobenzaldehyde], the Ki was 25 ± 4 µM.
CC(=O)c1ccc([N+](=O)[O-])cc1 [compound 4, 4-Nitroacetophenone] was tested, and the Ki was 70 ± 11 µM.
O=[N+]([O-])c1ccc(/C=N/O)o1 [compound 11, Nifuroxime] was tested, and the Ki was 32 ± 5 µM.
O=C(O)c1ccc([N+](=O)[O-])cc1 [compound 2, 4-Nitrobenzoic acid] gave a Ki of 1200 ± 180 µM.

These compounds were tested against T1, P. falciparum glutathione reductase (PfGR) (assay: GSH-mediated DTNB reduction at […] nm, Cleland plot).
Type: biochemical
Work on NC(=O)c1cc(N2CC2)c([N+](=O)[O-])cc1[N+](=O)[O-] [compound 3, 5-(Aziridin-1-yl)-2,4-dinitrobenzamide] yielded a Ki of 350 ± 40 µM.
